Source: US20100152197A1, “(4-TERT-BUTYLPIPERAZIN-2-YL)(PIPERAZIN-1-YL)METHANONE-N-CARBOXAMIDE DERIVATIVES” (ASTRAZENECA AB, priority 2008, published 2010)

Molecular target: T1, CCR2 (Homo sapiens, UniProt P41597)
T1 construct: cell membranes containing 6×10^6cells/ml equivalent; endogenous in cells; host or cells: THP1 cells (membrane fragments)
T1 sequence (P41597 1-360 isoform P41597-2): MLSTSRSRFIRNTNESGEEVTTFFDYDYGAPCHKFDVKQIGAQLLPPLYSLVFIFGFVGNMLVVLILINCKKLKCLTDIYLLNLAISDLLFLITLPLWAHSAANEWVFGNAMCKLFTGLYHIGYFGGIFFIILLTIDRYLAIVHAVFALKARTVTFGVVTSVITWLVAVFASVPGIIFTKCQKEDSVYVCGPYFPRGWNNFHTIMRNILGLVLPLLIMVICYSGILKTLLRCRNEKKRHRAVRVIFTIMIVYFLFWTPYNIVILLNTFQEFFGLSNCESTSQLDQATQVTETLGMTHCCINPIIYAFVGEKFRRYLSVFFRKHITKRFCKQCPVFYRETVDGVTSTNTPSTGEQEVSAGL
Assay: hMCP-1 THP1 receptor-binding assay (125I-labeled MCP-1, SPA, THP1 cell membranes)
Conditions: 250 pM 125I-labeled MCP-1, THP1 cell membranes, room temperature 16 hours; read-out: CCR2 Binding pIC50 (converted)
Method: hMCP-1 THP1 Receptor-Binding Assay
i) Preparation of Membrane Fragments
THP1 cells were grown in RPMI (Sigma) supplemented with 10% foetal calf serum, 2 mM glutamine (Gibco), 100 units/ml Penicillin and 100 μg/ml Streptomycin (Invitrogen). Membrane fragments were prepared using cell lysis/differential centrifugation methods as described previously (Siciliano et al., 1990, J. Biol. Chem., 265, 19658). Protein concentration was estimated by BCA protein assay (Pierce, Rockford, Ill.) according to the manufacturer's instructions.
^125I-labeled MCP-1 was prepared using Bolton and Hunter conjugation (Bolton et al., 1973, Biochem. J., 133, 529; Amersham International plc).
Test compounds were dissolved in DMSO and further diluted in assay buffer (50 mM HEPES, 1 mM CaCl2, 5 mM MgCl2, 1 mM EDTA, 0.03% BSA, pH 7.2) to give a range of concentrations starting with a top final concentration of up to 10 μM. […] Incubations contained 250 pM ^125I-labeled MCP-1 (GE Healthcare), 0.5 mg Scintillation proximity assay beads (GE Healthcare RPNQ001) and cell membranes containing 6×10^6cells/ml equivalent. Non-specific binding was determined by the inclusion of 10 μM of a known CCR2b antagonist in the place of test compound. Total binding was determined in the presence of 1% DMSO without compound. Incubations were performed in sealed optiplates and kept at room temperature for 16 hours after which the plates were counted on a Packard TopCount (Packard TopCount™). Dose-response curves were generated using “in-house” data analysis package incorporating Origin software to determine IC50 values. Percent inhibitions were calculated for single concentrations of compound by using the following formula 100−((compound binding minus non-specific binding)/(total binding minus non-specific binding)×100).

Row | Compound | IC50
1 | CC(C)(C)N1CCN[C@@H](C(=O)N2CCN(C(=O)Nc3ccc(Br)cc3)CC2)C1 [Example 4, N-(4-bromophenyl)-4-[(2R)-4-tert-butylpiperazine-2-carbonyl]piperazine-1-carboxamide] | 6.76 nM
2 | Cc1nc(NC(=O)N2CCN(C(=O)[C@H]3CN(C(C)(C)C)CCN3)CC2)sc1Br [Example 14, N-(5-bromo-4-methyl-1,3-thiazol-2-yl)-4-[(2R)-4-tert-butylpiperazine-2-carbonyl]piperazine-1-carboxamide] | 2.75 nM
3 | CC(C)(C)N1CCN[C@@H](C(=O)N2CCN(C(=O)Nc3ccc(C#N)c(C(F)(F)F)c3)CC2)C1 [Example 8, 4-[(2R)-4-tert-butylpiperazine-2-carbonyl]-N-[4-cyano-3-(trifluoromethyl)phenyl]piperazine-1-carboxamide] | 7.24 nM
4 | CC(C)(C)N1CCN[C@@H](C(=O)N2CCN(C(=O)Nc3cccc(OC(F)(F)C(F)F)c3)CC2)C1 [Example 10, 4-[(2R)-4-tert-butylpiperazine-2-carbonyl]-N-[3-(1,1,2,2-tetrafluoroethoxy)phenyl]piperazine-1-carboxamide] | 6.76 nM
5 | CC(C)(C)N1CCN[C@@H](C(=O)N2CCN(C(=O)Nc3nc(C(F)(F)F)c(Cl)s3)CC2)C1 [Example 17, 4-[(2R)-4-tert-butylpiperazine-2-carbonyl]-N-[5-chloro-4-(trifluoromethyl)-1,3-thiazol-2-yl]piperazine-1-carboxamide] | < 0.447 nM
6 | CC(C)(C)N1CCN[C@@H](C(=O)N2CCN(C(=O)Nc3ccc(OC(F)(F)F)c(Cl)c3)CC2)C1 [Example 13, 4-[(2R)-4-tert-butylpiperazine-2-carbonyl]-N-[3-chloro-4-(trifluoromethoxy)phenyl]piperazine-1-carboxamide] | < 0.871 nM
7 | CC(C)(C)N1CCN[C@@H](C(=O)N2CCN(C(=O)Nc3ccc(F)c(C(F)(F)F)c3)CC2)C1 [Example 5, 4-[(2R)-4-tert-butylpiperazine-2-carbonyl]-N-[4-fluoro-3(trifluoromethyl)phenyl]piperazine-1-carboxamide] | 2 nM
8 | CC(C)(C)N1CCN[C@@H](C(=O)N2CCN(C(=O)Nc3cccc(Cl)c3)CC2)C1 [Example 2, 4-[(2R)-4-tert-butylpiperazine-2-carbonyl]-N-(3-chlorophenyl)piperazine-1-carboxamide] | 2.57 nM
9 | CC(C)(C)N1CCN[C@@H](C(=O)N2CCN(C(=O)Nc3ccc(Cl)c(F)c3)CC2)C1 [Example 9, 4-[(2R)-4-tert-butylpiperazine-2-carbonyl]-N-(4-chloro-3-fluorophenyl)piperazine-1-carboxamide] | 2.57 nM
10 | CCc1nc(NC(=O)N2CCN(C(=O)[C@H]3CN(C(C)(C)C)CCN3)CC2)sc1Cl [Example 15, 4-[(2R)-4-tert-butylpiperazine-2-carbonyl]-N-(5-chloro-4-ethyl-1,3-thiazol-2-yl)piperazine-1-carboxamide] | < 0.447 nM
11 | CC(C)(C)N1CCN[C@@H](C(=O)N2CCN(C(=O)Nc3cccc(OCc4ccccc4)c3)CC2)C1 [Example 12, 4-[(2R)-4-tert-butylpiperazine-2-carbonyl]-N-(3-phenylmethoxyphenyl)piperazine-1-carboxamide] | 1.82 nM
12 | CC(C)(C)N1CCN[C@@H](C(=O)N2CCN(C(=O)Nc3ccc(F)c(Cl)c3)CC2)C1 [Example 7, 4-[(2R)-4-tert-butylpiperazine-2-carbonyl]-N-(3-chloro-4-fluorophenyl)piperazine-1-carboxamide] | 8.51 nM
13 | CC(C)(C)N1CCN[C@@H](C(=O)N2CCN(C(=O)Nc3cccc(SC(F)(F)F)c3)CC2)C1 [Example 3, 4-[(2R)-4-tert-butylpiperazine-2-carbonyl]-N-[3-(trifluoromethylsulfanyl)phenyl]piperazine-1-carboxamide] | 2.82 nM
14 | Cc1cc(NC(=O)N2CCN(C(=O)[C@H]3CN(C(C)(C)C)CCN3)CC2)ccc1Cl [Example 11, 4-[(2R)-4-tert-butylpiperazine-2-carbonyl]-N-(4-chloro-3-methylphenyl)piperazine-1-carboxamide] | 2.29 nM
15 | Cc1ccc(NC(=O)N2CCN(C(=O)[C@H]3CN(C(C)(C)C)CCN3)CC2)cc1C(F)(F)F [Example 6, 4-[(2R)-4-tert-butylpiperazine-2-carbonyl]-N-[4-methyl-3-(trifluoromethyl)phenyl]piperazine-1-carboxamide] | 1.82 nM
16 | Cc1nc(NC(=O)N2CCN(C(=O)[C@H]3CN(C(C)(C)C)CCN3)CC2)sc1Cl [Example 16, 4-[(2R)-4-tert-butylpiperazine-2-carbonyl]-N-(5-chloro-4-methyl-1,3-thiazol-2-yl)piperazine-1-carboxamide] | 1.26 nM
17 | CC(C)(C)N1CCN[C@@H](C(=O)N2CCN(C(=O)Nc3cccc(C(F)(F)F)c3)CC2)C1 [Example 1, 4-[(2R)-4-tert-butylpiperazine-2-carbonyl]-N[3(trifluoromethyl)phenyl]piperazine-1-carboxamide] | 3.09 nM
